From PMC9138545, “Incorporation of Oxidized Phenylalanine Derivatives into Insulin Signaling Relevant Proteins May Link Oxidative Stress to Signaling Conditions Underlying Chronic Insulin Resistance” (Biomedicines, 2022)

How the values were obtained:
plants = conditions: ref [41]; cited from earlier work
Excerpt: (§1) Furthermore, m- and o-Tyr may have a role beyond being markers ROS attack. […] For example, we have described that patients on renal replacement therapy show a connection between plasma levels of o-Tyr and erythropoietin (EPO) resistance. In a further set of experiments, m- and o-Tyr in ...

concomitant tumor growth = conditions: ref [42]; cited from earlier work
Excerpt: as §1

total proteins of cells = assay: HPLC of protein-bound tyrosines (incorporation into cellular proteins); type: cell-based; conditions: cells grown on o-Tyr or m-Tyr; n = 5–10
Method: (§2) Early passages of mouse embryo fibroblast (3T3-L1) (ATCC, Manassas, VA, US) were cultured in Dulbecco’s modified Eagle medium (DMEM, Sigma Aldrich, Budapest, Hungary, CAT number: D6046; Invitrogen, Waltham, MA, USA, CAT number: 41966-029) supplemented with 100 U/mL penicillin, 0.1 mg/mL streptomycin (Gibco, Budapest, Hungary, CAT number: 15070-063) and 10% heat-inactivated Fetal Bovine Serum (FBS, Gibco, CAT number: 16170-078), supplemented with 398 nM p-, m-, or o-Tyr (equimolar to the original p-Tyr content of the medium) purchased from Sigma (CAT number: para-Tyr: T8566, m-Tyr: T3629, o-Tyr: 93851). Media contained 25 or 5 mmol/L glucose (experiment dependent) pyruvate and L-glutamine. Cells were grown at 37 °C and 5% CO2. Adipocyte differentiation was achieved by DMEM supplemented with 10% FBS (Gibco, Csertex, Budapest, Hungary, CAT number: 10106-169) (FBS) and a […] insulin (Sigma Aldrich, Budapest, Hungary, CAT number: I 9278), […] isobuthylmethylxanthine (Sigma Aldrich, Budapest, Hungary, CAT number: I 5879), and 250 nmol/L dexamethasone (Sigma Aldrich, Budapest, Hungary, CAT number: 861871) containing cocktail. From day 4 onward, cultures were maintained in DMEM containing 1.5 μg/mL insulin and 10% FBS with a medium change every other day until experimental treatments were started. After 90% of the cell population reached the adipocyte phenotype, prior to all treatments, cells were incubated overnight in serum-deprived medium. Experimental treatment was performed in serum-deprived medium containing 200 or 400 nmol/L insulin, for 5 min.
The conditionally immortalized human podocyte cell line (provided by Moin Saleem, University of Bristol, UK) was cultured in RPMI1640 medium (R8756, Sigma Aldrich, Budapest, Hungary) supplemented with 10% heat-inactivated FBS (16170-078, Gibco, Budapest, Hungary), insulin-transferrin-selenium supplement (41400-045, Gibco), 100 U/mL penicillin, 0.1 mg/mL streptomycin (P4333, Sigma), and […] (equimolar to the original p-Tyr content of the medium) para-, meta-, or ortho-Tyr. The cells were grown at 33 °C 5% CO2, and when they reached 40–60% confluency they were transferred to 37 °C to differentiate. Following the thermoswitching, cells were kept on RPMI1640 medium containing 2% FBS, antibiotics, and different tyrosines. Before every treatment, cells were incubated in serum-deprived medium overnight. […]
The total protein-bound cellular tyrosine content was measured by adding 200 μL of distilled water to the samples, followed by freezing overnight at −70 °C to achieve cell lysis. […]

3T3-L1 adipocytes = assay: Isotope glucose uptake (deoxy-D-glucose 2-[1 2-3H(N)]) in differentiated 3T3-L1 adipocytes; type: cell-based, mouse; conditions: for insulin-induced glucose uptake, time dependence: 200 nmol/L insulin, cells grown 1, 2, 3, 4, 5 or 12 days with p-, n = 5–8; for insulin-induced glucose uptake, time dependence / insulin-induced glucose uptake, 5 mmol/L glucose: m- or o-Tyr; for insulin-induced glucose uptake, 5 mmol/L glucose: 2, 20, 200, 400 nmol/L insulin, medium with p-; for non-stimulated (basal) glucose uptake: no insulin, cells grown 1-12 days with m- or o-Tyr, vs. p-Tyr control
Method: as §2
Initially, cells were kept in glucose-free DMEM (Gibco, Csertex, Budapest, Hungary) for 30 min and then were treated with 2, 20, 200, or 400 nmol/L insulin for 100 min. Concurrently, 1 μCi/mL deoxy-D-glucose 2-[1 2-3H(N)] (3.7 × 104 Bq/mL) (Izotóp Intézet, Budapest, Hungary) was added to the plates for 100 min. After scraping the cells into the medium, they were centrifuged for 5 min at 1000 rpm. We dissolved the sediment in 70 μL of lysis buffer, then glucose uptake was determined by scintillation counting by measuring 30 μL of the sample, using a Beckman LS 5000 TD counter, in counts per minute (CPM), for five minutes each, with average activity was used as the outcome. Following freezing overnight at −70 °C, protein concentration was measured with a Hitachi spectrophotometer. Results were normalized for protein content.

| Structure (SMILES) | natural herbicide, plant growth (plants) | inhibition of concomitant tumor growth (concomitant tumor growth) | protein-bound o-Tyr/p-Tyr and m-Tyr/p-Tyr ratio (total proteins of cells) | protein-bound p-Tyr/Phe ratio (total proteins of cells) | insulin-induced glucose uptake, time dependence (3T3-L1 adipocytes) | insulin-induced glucose uptake, 5 mmol/L glucose (3T3-L1 adipocytes) | non-stimulated (basal) glucose uptake (3T3-L1 adipocytes) |
| --- | --- | --- | --- | --- | --- | --- | --- |
| N[C@@H](Cc1cccc(O)c1)C(=O)O [m-Tyr, meta-tyrosine] | act as a natural herbicide and inhibit the growth of plants | involved in the inhibition of concomitant tumor growth | increased | either a decrease or remained unchanged | no significant effect | failed to induce the glucose uptake | lower than that of the p-Tyr control |
| NC(Cc1ccccc1O)C(=O)O (stereo not drawn) [o-Tyr, ortho-tyrosine] |  |  | increased | either a decrease or remained unchanged | no significant effect | failed to induce the glucose uptake | lower than that of the p-Tyr control |
